# Assay results published in the supplement of paper PMC10627819.
# Assays:
# S. pneumoniae D39V [1] = assay: fitness (endpoint OD595 vs no drug) (fraction); higher = more growth
# Procedure, shortened: (§1)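 Bacterial growth was followed in 384-well plates seeded at OD595 0.01, with 30 µl per well, or 55 µl for S. pneumoniae, in TSB, LB Lennox or CY at 37 °C. OD595 was read every 30 min for 14 h, and each reading had the first reading subtracted as background. Fitness is the background-corrected optical density at entry into stationary phase divided by the robust mean of the no-drug control wells. This ratio is capped at 1.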
# B. subtilis 168 [2] = assay: as above
# Procedure, shortened: as §1
# S. pneumoniae D39V [3] = assay: Bliss interaction score (quartile over a dose matrix) (fitness difference); higher = more antagonism (negative = synergy)
# Procedure, shortened: (§2)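 The Bliss score is observed minus expected fitness under the product model, reported as quartiles over technical, biological and donor/recipient replicates. Fitness is the OD595 at entry into stationary phase divided by the plate's robust no-drug mean and capped at 1. Single-drug fitness was inferred from combination data.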
# S. aureus Newman = assay: as above
# Procedure, shortened: as §2
# S. aureus DSM 20231 = assay: as above
# Procedure, shortened: as §2
# B. subtilis 168 [4] = assay: as above
# Procedure, shortened: as §2
# 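For Bliss interaction score (quartile over a dose matrix) in this document: first quartile when negative (synergy) and third quartile when positive (antagonism).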
compound,measurement,setting,value
CO/N=C(\C(=O)N[C@@H]1C(=O)N2C(C(=O)O)=C(COC(C)=O)CS[C@H]12)c1csc(N)n1 [Cefotaxime] + CN(C)C(=O)C(CCN1CCC(O)(c2ccc(Cl)cc2)CC1)(c1ccccc1)c1ccccc1 [Loperamide],fitness,"S. pneumoniae D39V [1]; first compound 0.0018 µg/mL, partner 17.14 µg/mL",0.977
same,fitness,"S. pneumoniae D39V [1]; first compound 0.0018 µg/mL, partner 20 µg/mL",0.988
same,fitness,"S. pneumoniae D39V [1]; first compound 0.0018 µg/mL, partner 34.28 µg/mL",0.984
same,fitness,"S. pneumoniae D39V [1]; first compound 0.0018 µg/mL, partner 40 µg/mL",≥ 1
same,fitness,"S. pneumoniae D39V [1]; first compound 0.0018 µg/mL, partner 68.57 µg/mL, one replicate",≥ 1
same,fitness,"S. pneumoniae D39V [1]; first compound 0.0018 µg/mL, partner 80 µg/mL",≥ 1
same,fitness,"S. pneumoniae D39V [1]; first compound 0.0035 µg/mL, partner 17.14 µg/mL",0.981
same,fitness,"S. pneumoniae D39V [1]; first compound 0.0035 µg/mL, partner 20 µg/mL",0.984
same,fitness,"S. pneumoniae D39V [1]; first compound 0.0035 µg/mL, partner 34.28 µg/mL",0.935
same,fitness,"S. pneumoniae D39V [1]; first compound 0.0035 µg/mL, partner 40 µg/mL",0.977
same,fitness,"S. pneumoniae D39V [1]; first compound 0.0035 µg/mL, partner 68.57 µg/mL, one replicate",0.999
same,fitness,"S. pneumoniae D39V [1]; first compound 0.0035 µg/mL, partner 80 µg/mL",0.956
same,fitness,"S. pneumoniae D39V [1]; first compound 0.007 µg/mL, partner 20 µg/mL",0.898
same,fitness,"S. pneumoniae D39V [1]; first compound 0.007 µg/mL, partner 40 µg/mL",0.842
same,fitness,"S. pneumoniae D39V [1]; first compound 0.007 µg/mL, partner 68.57 µg/mL, one replicate",0.761
same,fitness,"S. pneumoniae D39V [1]; first compound 0.007 µg/mL, partner 80 µg/mL",0.262
same,fitness,"B. subtilis 168 [2]; first compound 0.00775 µg/mL, partner 25 µg/mL, one replicate",0.406
same,fitness,"B. subtilis 168 [2]; first compound 0.00775 µg/mL, partner 50 µg/mL, one replicate",0.0446
same,fitness,"B. subtilis 168 [2]; first compound 0.00775 µg/mL, partner 100 µg/mL, one replicate",0.0412
same,fitness,"B. subtilis 168 [2]; first compound 0.0155 µg/mL, partner 25 µg/mL, one replicate",0.0668
same,fitness,"B. subtilis 168 [2]; first compound 0.0155 µg/mL, partner 50 µg/mL, one replicate",0.0311
same,fitness,"B. subtilis 168 [2]; first compound 0.0155 µg/mL, partner 100 µg/mL, one replicate",0.0228
same,fitness,"B. subtilis 168 [2]; first compound 0.031 µg/mL, partner 25 µg/mL, one replicate",0.0762
same,fitness,"B. subtilis 168 [2]; first compound 0.031 µg/mL, partner 50 µg/mL, one replicate",0.0295
same,fitness,"B. subtilis 168 [2]; first compound 0.031 µg/mL, partner 100 µg/mL, one replicate",0.0243
same,fitness,"B. subtilis 168 [2]; first compound 0.5 µg/mL, partner 25 µg/mL",0.0401
same,fitness,"B. subtilis 168 [2]; first compound 0.5 µg/mL, partner 50 µg/mL",0.0447
same,fitness,"B. subtilis 168 [2]; first compound 0.5 µg/mL, partner 100 µg/mL",0.0339
same,fitness,"B. subtilis 168 [2]; first compound 1 µg/mL, partner 25 µg/mL",0.0257
same,fitness,"B. subtilis 168 [2]; first compound 1 µg/mL, partner 50 µg/mL",0.0406
same,fitness,"B. subtilis 168 [2]; first compound 1 µg/mL, partner 100 µg/mL",0.032
same,fitness,"B. subtilis 168 [2]; first compound 2 µg/mL, partner 25 µg/mL",0.0689
same,fitness,"B. subtilis 168 [2]; first compound 2 µg/mL, partner 50 µg/mL",0.0803
same,fitness,"B. subtilis 168 [2]; first compound 2 µg/mL, partner 100 µg/mL",0.0709
same,Bliss interaction score,S. pneumoniae D39V [3],-0.0572
same,Bliss interaction score,S. aureus Newman,0.0269
same,Bliss interaction score,S. aureus DSM 20231,-0.0602
same,Bliss interaction score,B. subtilis 168 [4],-0.0982
